Test [1] addresses T1, Mu-type opioid receptor (Homo sapiens, UniProt P35372).
In test [2] the target is Prostaglandin G/H synthase 1 (Homo sapiens, UniProt P23219). Type of test: functional.
Another test concerns the target T2, Thromboxane A2 receptor (Homo sapiens, UniProt P21731).
T2 sequence (P21731 whole entry): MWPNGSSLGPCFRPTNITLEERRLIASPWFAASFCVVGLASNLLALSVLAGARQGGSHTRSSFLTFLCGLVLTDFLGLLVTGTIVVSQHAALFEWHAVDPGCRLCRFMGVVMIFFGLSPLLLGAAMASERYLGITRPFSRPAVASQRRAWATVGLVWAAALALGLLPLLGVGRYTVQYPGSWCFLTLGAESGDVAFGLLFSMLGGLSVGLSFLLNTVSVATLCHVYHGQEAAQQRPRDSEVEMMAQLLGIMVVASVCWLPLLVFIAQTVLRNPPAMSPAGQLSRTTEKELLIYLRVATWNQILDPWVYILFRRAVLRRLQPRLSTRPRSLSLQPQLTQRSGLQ

For test [3], the target named is Beta-1 adrenergic receptor (Homo sapiens, UniProt P08588). Type of test: functional.
Sequence of Beta-1 adrenergic receptor (P08588 whole entry): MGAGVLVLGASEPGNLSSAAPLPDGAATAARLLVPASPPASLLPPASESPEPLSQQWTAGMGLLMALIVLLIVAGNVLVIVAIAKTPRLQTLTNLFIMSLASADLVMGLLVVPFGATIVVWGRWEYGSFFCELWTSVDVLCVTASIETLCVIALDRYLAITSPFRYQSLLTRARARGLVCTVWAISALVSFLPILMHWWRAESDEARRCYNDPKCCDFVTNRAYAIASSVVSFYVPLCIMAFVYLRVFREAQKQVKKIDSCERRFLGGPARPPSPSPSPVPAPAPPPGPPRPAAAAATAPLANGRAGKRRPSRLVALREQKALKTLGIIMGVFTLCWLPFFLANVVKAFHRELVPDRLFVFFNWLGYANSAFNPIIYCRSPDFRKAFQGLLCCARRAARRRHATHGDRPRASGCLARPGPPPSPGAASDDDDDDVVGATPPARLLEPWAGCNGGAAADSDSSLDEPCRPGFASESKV
A further test addresses T3, B2 bradykinin receptor (Homo sapiens, UniProt P30411).
T3 sequence (P30411 whole entry): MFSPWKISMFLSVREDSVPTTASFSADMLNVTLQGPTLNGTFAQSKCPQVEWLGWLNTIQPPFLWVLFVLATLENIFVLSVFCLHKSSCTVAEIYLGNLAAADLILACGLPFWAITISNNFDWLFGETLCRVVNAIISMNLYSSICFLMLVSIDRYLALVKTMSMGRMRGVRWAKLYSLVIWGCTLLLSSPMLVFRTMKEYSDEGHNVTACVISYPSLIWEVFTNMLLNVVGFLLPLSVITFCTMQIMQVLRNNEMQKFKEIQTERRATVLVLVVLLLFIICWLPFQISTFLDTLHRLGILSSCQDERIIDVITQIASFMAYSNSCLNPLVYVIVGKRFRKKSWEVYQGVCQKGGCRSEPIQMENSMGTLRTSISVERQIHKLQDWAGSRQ

Test [4] concerns the target Neuronal acetylcholine receptor subunit alpha-4 (Homo sapiens, UniProt P43681).
A further test addresses Motilin receptor (Homo sapiens, UniProt O43193).
The target in test [5] is T4, Equilibrative nucleoside transporter 1 (Homo sapiens, UniProt Q99808).
T4 sequence (Q99808 whole entry): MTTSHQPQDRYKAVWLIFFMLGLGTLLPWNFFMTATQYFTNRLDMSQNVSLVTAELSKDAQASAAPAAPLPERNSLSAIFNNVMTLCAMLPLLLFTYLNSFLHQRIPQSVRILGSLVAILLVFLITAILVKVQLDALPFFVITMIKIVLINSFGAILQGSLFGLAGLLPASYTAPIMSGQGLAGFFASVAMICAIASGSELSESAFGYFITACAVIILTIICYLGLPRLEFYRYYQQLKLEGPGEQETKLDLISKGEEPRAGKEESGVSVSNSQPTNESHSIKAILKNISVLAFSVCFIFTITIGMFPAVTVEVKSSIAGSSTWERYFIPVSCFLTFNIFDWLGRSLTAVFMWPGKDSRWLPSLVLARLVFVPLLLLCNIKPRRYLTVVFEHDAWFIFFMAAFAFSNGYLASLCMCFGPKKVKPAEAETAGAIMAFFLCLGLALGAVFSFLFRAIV

The target in test [6] is T5, Gastrin/cholecystokinin type B receptor (Homo sapiens, UniProt P32239).
T5 sequence (P32239 whole entry): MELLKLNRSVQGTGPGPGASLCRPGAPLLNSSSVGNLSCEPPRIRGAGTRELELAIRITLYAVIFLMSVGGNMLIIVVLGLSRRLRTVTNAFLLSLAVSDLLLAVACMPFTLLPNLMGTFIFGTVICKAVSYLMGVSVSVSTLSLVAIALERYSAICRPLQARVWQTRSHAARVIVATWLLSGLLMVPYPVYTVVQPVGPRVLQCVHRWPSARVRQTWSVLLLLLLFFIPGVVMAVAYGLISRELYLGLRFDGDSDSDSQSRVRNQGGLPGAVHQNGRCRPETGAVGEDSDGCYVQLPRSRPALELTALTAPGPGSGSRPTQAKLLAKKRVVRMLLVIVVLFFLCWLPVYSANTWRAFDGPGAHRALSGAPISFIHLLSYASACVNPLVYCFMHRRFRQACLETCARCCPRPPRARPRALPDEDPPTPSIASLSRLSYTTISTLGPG

The target of test [7] is T6, Muscarinic acetylcholine receptor M1 (Homo sapiens, UniProt P11229).
T6 sequence (P11229 whole entry): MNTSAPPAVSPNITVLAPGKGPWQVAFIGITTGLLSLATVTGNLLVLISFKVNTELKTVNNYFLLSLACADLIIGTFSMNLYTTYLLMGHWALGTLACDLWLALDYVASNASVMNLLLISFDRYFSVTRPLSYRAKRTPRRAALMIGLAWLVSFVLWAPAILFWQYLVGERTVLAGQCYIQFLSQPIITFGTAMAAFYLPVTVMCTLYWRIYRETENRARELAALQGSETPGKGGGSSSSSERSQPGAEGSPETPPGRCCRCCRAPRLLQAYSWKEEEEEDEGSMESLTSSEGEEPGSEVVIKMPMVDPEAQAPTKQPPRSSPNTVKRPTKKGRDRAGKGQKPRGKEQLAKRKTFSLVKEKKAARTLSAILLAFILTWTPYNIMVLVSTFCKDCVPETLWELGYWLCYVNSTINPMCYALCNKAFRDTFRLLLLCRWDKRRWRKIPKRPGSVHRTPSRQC
Type of test: functional.

The target in test [8] is 5-hydroxytryptamine receptor 2B (Homo sapiens, UniProt P41595). Type of test: functional, cell-based.
Sequence of 5-hydroxytryptamine receptor 2B (P41595 whole entry): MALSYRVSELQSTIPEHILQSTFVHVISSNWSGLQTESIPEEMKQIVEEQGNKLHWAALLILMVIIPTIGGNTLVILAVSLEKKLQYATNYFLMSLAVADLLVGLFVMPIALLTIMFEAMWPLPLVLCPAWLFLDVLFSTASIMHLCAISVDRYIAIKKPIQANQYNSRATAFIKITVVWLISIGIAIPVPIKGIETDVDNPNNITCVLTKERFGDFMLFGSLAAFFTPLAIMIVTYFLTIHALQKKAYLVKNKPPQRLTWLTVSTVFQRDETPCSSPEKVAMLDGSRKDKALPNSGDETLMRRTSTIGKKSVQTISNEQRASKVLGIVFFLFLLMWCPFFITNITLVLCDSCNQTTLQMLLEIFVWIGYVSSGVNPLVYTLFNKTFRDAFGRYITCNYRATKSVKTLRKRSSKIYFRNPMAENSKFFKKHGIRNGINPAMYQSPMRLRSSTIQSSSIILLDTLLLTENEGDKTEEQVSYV
Test [9] has as its target Sodium-dependent dopamine transporter (Homo sapiens, UniProt Q01959).
In test [10] the target is T1, Mu-type opioid receptor. Put plainly: biochemical. Type of test: functional.
Test [11] addresses Gamma-aminobutyric acid receptor subunit alpha-1 (Rattus norvegicus, UniProt P62813).
Also: assay procedure not described here.

T1 sequence (P35372 whole entry): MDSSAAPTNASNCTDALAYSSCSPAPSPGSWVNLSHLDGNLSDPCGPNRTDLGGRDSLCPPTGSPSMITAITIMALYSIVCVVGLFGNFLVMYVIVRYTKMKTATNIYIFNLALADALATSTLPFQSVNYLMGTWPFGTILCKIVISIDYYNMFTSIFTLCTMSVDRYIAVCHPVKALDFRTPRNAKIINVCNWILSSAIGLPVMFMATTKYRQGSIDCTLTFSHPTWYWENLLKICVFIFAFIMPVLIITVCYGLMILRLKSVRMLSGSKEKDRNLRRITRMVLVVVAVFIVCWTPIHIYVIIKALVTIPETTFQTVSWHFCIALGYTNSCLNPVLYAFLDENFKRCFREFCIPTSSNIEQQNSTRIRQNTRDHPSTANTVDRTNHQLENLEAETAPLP
Sequence of Gamma-aminobutyric acid receptor subunit alpha-1 (P62813 whole entry): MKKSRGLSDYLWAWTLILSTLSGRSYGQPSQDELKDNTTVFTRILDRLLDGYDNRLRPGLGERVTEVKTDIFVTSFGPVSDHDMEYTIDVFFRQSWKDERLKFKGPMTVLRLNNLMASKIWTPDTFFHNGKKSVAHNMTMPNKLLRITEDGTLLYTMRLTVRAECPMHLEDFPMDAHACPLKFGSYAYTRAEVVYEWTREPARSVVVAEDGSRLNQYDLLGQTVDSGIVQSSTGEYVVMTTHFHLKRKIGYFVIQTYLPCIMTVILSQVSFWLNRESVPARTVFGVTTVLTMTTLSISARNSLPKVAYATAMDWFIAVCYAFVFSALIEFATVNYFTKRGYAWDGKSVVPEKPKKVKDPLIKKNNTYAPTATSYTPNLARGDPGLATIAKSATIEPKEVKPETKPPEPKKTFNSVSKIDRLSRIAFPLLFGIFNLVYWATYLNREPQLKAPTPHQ
Sequence of Neuronal acetylcholine receptor subunit alpha-4 (P43681 whole entry): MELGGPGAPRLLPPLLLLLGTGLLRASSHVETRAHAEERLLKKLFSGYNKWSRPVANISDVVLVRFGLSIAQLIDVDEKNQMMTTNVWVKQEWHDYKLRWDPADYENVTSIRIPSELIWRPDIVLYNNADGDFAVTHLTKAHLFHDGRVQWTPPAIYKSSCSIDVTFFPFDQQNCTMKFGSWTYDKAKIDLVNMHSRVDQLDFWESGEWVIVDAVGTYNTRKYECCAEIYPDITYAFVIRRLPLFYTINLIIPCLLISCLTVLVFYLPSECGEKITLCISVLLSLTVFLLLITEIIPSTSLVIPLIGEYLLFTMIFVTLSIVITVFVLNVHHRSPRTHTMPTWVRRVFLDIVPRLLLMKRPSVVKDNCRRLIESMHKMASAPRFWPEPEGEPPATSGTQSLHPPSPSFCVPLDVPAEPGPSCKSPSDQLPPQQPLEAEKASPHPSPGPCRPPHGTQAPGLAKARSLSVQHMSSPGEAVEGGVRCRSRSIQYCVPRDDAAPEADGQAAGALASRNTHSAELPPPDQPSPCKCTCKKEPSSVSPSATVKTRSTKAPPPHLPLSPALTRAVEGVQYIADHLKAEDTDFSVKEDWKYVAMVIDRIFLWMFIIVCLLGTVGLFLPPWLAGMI
Sequence of Motilin receptor (O43193 whole entry): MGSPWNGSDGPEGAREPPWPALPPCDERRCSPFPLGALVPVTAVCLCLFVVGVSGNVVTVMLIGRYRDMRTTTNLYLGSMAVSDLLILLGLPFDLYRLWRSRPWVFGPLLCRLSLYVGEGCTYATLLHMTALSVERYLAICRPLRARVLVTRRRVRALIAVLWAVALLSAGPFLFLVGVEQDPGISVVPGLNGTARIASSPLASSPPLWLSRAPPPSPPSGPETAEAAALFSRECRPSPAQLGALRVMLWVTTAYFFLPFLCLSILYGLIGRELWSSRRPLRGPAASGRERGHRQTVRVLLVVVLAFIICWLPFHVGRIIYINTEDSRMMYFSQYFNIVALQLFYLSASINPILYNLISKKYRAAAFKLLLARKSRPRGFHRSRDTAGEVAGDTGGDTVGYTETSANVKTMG
Sequence of Prostaglandin G/H synthase 1 (P23219 whole entry): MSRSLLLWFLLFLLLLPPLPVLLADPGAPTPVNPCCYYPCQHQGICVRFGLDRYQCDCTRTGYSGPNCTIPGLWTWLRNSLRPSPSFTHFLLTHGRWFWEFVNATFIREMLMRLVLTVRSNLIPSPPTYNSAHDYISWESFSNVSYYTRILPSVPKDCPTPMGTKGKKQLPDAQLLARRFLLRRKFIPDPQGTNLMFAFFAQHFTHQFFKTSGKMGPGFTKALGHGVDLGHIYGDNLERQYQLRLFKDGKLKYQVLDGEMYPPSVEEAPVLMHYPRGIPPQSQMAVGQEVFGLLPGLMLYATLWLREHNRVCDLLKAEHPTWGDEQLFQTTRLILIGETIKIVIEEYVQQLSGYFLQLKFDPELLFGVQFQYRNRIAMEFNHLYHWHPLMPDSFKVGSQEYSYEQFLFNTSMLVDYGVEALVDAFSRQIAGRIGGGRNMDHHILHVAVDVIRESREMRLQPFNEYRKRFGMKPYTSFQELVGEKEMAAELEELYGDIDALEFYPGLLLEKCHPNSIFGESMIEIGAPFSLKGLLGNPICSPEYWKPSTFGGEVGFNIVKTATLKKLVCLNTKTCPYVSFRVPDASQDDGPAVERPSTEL
Sequence of Sodium-dependent dopamine transporter (Q01959 whole entry): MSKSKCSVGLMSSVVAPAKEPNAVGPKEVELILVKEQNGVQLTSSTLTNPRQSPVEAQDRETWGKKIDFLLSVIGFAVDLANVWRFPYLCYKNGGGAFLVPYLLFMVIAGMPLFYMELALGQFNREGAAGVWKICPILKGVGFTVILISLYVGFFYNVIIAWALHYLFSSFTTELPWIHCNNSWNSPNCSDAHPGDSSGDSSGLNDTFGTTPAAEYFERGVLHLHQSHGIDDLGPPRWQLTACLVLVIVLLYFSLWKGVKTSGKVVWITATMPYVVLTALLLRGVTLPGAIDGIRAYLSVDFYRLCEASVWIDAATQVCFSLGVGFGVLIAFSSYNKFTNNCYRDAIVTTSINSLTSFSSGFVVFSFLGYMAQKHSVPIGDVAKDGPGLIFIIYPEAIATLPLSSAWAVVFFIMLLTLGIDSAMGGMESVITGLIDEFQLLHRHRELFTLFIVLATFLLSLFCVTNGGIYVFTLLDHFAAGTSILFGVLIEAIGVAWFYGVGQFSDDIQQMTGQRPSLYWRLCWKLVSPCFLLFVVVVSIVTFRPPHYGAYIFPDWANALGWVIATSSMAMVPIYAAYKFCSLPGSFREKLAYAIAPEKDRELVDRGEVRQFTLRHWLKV

By AC50 is commonly meant the midpoint of the concentration-response curve, whichever way the signal moves. Lower therefore signals activity at low concentration. Regarding `CN(C)c1ccc(C(=C2C=CC(=[N+](C)C)C=C2)c2ccc(N(C)C)cc2)cc1` [GENTIAN VIOLET], the AC50 is 3.9 µM on Mu-type opioid receptor [1] and 11.8 µM in test [2].
In the case of HYDROXOCOBALAMIN, the half-maximal activity concentration (AC50) (at Thromboxane A2 receptor; in test [3]; at B2 bradykinin receptor; in test [4]; at Motilin receptor; in test [5]) was more than 30 µM throughout. Further, the AC50 (in [6]; in test [7]; in [8]; in [9]; at Mu-type opioid receptor [10]; in test [11]) was more than 30 µM each time.

The values are drawn from ChEMBL document CHEMBL5291721, “A preclinical secondary pharmacology resource illuminates target-adverse drug reaction associations of marketed drugs” (Nat Commun, 2023).
